What all share (assay): NCI tumour cell line growth inhibition, 48 h
Experiment [1] concerns HT29 colon.
In experiment [2] the test system is SNB-19 CNS.
Experiment [3] relates to NCI-H23 lung.
The subject of experiment [4] is UACC-62 melanoma.
Experiment [5] deals with MOLT-4 leukemia.
Experiment [6] deals with T-47D breast.
Experiment [7] relates to SF-295 CNS.
Experiment [8] deals with NCI-H522 lung.
For experiment [9], the system named is 786-0 renal.
The subject of experiment [10] is UACC-257 melanoma.
Experiment [11] deals with HOP-92 NSCLC.
In experiment [12] the test system is SK-OV-3 ovarian.
Experiment [13] relates to NCI-H226 lung.
For experiment [14], the system named is MALME-3M melanoma.
Experiment [15] relates to BT-549 breast.
For experiment [16], the system named is SW-620 colon.
The subject of experiment [17] is TK-10 renal.
Experiment [18] has as its system NCI-H460 lung.
The test system of experiment [19] is CCRF-CEM leukemia.

Each structure is given as a SMILES string.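 Step 1: Grow cells in 96-well plates. Step 2: Expose to compound for 48 hours at 5 concentrations. Step 3: Interpolate endpoints linearly; if unreached, use highest concentration. Definition used: TGI = concentration required for complete inhibition of growth.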 Some results are limits rather than exact numbers.

For the compound `COc1ccc(N=Nc2ccc3oc(=O)c(C(=O)Nc4ccccc4)cc3c2)cc1`, the TGI in experiment [1], in experiment [2], in experiment [3], in experiment [4], in experiment [5] and in experiment [6] was above 10 µM each time. Also, the TGI in experiment [7], in [8], in experiment [9], in experiment [10], in [11] and in [12] was above 10 µM in each case. Moreover, the TGI in experiment [13], in experiment [14], in experiment [15], in experiment [16], in experiment [17] and in experiment [18] was above 10 µM throughout.

On to `CCOC(=O)c1cc(C2CCN(CC(C)CC)C2=S)c(-c2cc(C)no2)[nH]1` (configuration not stated), for which the TGI in experiment [1], in experiment [2], in experiment [3], in experiment [4], in experiment [19] and in experiment [5] was above 100 µM each time. The TGI in [6], in experiment [7], in experiment [9], in [10], in [11] and in experiment [12] was above 100 µM in each case. The TGI in experiment [13], in [14], in experiment [15], in experiment [16] and in experiment [18] was above 100 µM each time.

On to `CCN(CC)c1ccc(C2SCC(=O)N2c2ccc(NC(=O)c3ccc(N4C(=O)CSC4c4ccc(N(CC)CC)cc4)cc3)cc2)cc1` (configuration not stated), for which the TGI in experiment [1], in experiment [2], in experiment [3], in experiment [4], in experiment [19] and in experiment [5] was above 100 µM throughout. Also, the TGI in experiment [6], in [7], in [8], in experiment [9], in [10] and in [11] was above 100 µM throughout. The TGI in experiment [12], in experiment [14], in experiment [15], in [16], in [17] and in experiment [18] was above 100 µM throughout.

As for `COc1ccc(-c2cc(-c3ccc(Nc4ccnc5cc(Cl)ccc45)cc3)nc(N)c2C#N)cc1`, the TGI in [2], in [3], in experiment [4], in [5], in experiment [6] and in experiment [7] was above 100 µM each time. The TGI in experiment [8], in experiment [9], in experiment [11], in experiment [12], in experiment [13] and in experiment [14] was above 100 µM in each case. The TGI in experiment [15], in experiment [16], in [17] and in experiment [18] was above 100 µM each time.

Turning to `O=C(O)CCC(NC(=O)c1ccc(Nc2cnc3ccc(C(F)(F)F)cc3n2)cc1)C(=O)O` (configuration not stated), the TGI in experiment [1], in experiment [2], in experiment [3], in [4], in experiment [19] and in experiment [5] was above 100 µM each time. Further, the TGI in experiment [6], in [7], in [9], in experiment [10], in [11] and in experiment [12] was above 100 µM each time. The TGI in experiment [13], in experiment [14], in experiment [15], in [16], in experiment [17] and in [18] was above 100 µM each time.

Turning to `N#CCC(=O)c1cc(OCc2cc(OCc3ccc(Br)cc3)cc(OCc3ccc(Br)cc3)c2)cc(OCc2cc(OCc3ccc(Br)cc3)cc(OCc3ccc(Br)cc3)c2)c1`, the TGI in experiment [2], in experiment [3], in experiment [4], in experiment [6], in [7] and in [8] was above 100 µM in each case. Besides, the TGI in experiment [9], in experiment [10], in experiment [11], in experiment [12], in experiment [13] and in experiment [14] was above 100 µM each time. Also, the TGI in [15], in experiment [17] and in experiment [18] was above 100 µM each time.

As for `CCCc1c(O)c(=O)c2c(OC)cc(OC)c3c4c(OC)cc(OC)c5c(=O)c(O)c(CCC)c(c1c23)c54`, the TGI is 6.75 µM in experiment [1]; 12.7 µM in experiment [2]; 3.16 µM in experiment [3]; 1.88 µM in experiment [4]; 0.582 µM in experiment [19]; 1.23 µM in experiment [5]. The TGI in experiment [6] worked out at 5.73 µM; in experiment [7], 12.2 µM; in [8] it was 1.15 µM; in experiment [9], 9.59 µM; in [10], 7.06 µM; in experiment [11] it was 2.55 µM. The TGI in experiment [12] was determined as 2.96 µM; in experiment [13], 10.9 µM; in experiment [15], 10.1 µM; in [16], 12.2 µM; in experiment [17] it was 15.8 µM; in [18], 2.31 µM.

As to `COc1ccc(Cc2c(N)[nH]c(=O)n(C)c2=O)cc1`, the TGI in [1], in experiment [2], in experiment [3], in [4], in [6] and in experiment [7] was above 100 µM throughout. Moreover, the TGI in [8], in experiment [9], in experiment [10], in experiment [11], in [12] and in [13] was above 100 µM in each case. Further, the TGI in [14], in experiment [15], in experiment [16], in experiment [17] and in experiment [18] was above 100 µM in each case.
